From patent US9062061B2, “Compound having PARP inhibitory activity” (SANTEN PHARMACEUTICAL CO., LTD., priority 2011, dated 2015)

Biological target: T1, human recombinant PARP1 (Homo sapiens, UniProt P09874)
T1 construct: purchased Trevigen 4677-096-K
Assay: PARP inhibitory activity measurement test (Universal Colorimetric PARP Assay kit, Trevigen)
Format: biochemical
Settings: compound concentration: 10 μM, read-out: PARP1 inhibition rate (%)
Description: For evaluating PARP inhibitory activity of the present compound, inhibitory activity of each test compound against human recombinant PARP 1 was measured using Universal Colorimetric PARP Assay kit with Histone-Coated Strip Wells (Cat No.: 4677-096-K) available from Trevigen. The test was conducted according to the procedure in the instruction attached to this kit. The concrete operation will be described below.
After dissolving the test compound in dimethyl sulfoxide, the solution was diluted with a PARP buffer attached to the kit to prepare a 50 μM test compound solution.
In each well of a histone-coated 96-well plate, 10 μL of the test compound solution (50 μM), 15 μL of human recombinant PARP1 (33.3 Unit/mL) and 25 μL of PARP cocktail (containing activated DNA and biotinated NAD) were added, and incubated at room temperature for 1 hour (final reaction amount: 50 μL). Each well was washed twice with 200 μL of 0.1% Triton-X-containing Dulbecco's phosphate buffer, and further washed twice with 200 μL of Dulbecco's phosphate buffer, and then 50 μL of Strep-HRP was added, followed by incubation at room temperature for 1 hour. Each well was washed twice with 200 μL of 0.1% Triton-X-containing Dulbecco's phosphate buffer, and further washed twice with 200 μL of Dulbecco's phosphate buffer, and then 50 μL of TACS-Sapphire coloriometric substrate was added, followed by incubation at room temperature for 15 minutes. After stopping the reaction by adding 50 μL of 0.2 M HCl, absorbance at 450 nm (Abs 450) was measured by a microplate reader. The number of examples in each group was 1 to 2.
Using a well into which dimethyl sulfoxide and a PARP buffer were added in place of the test compound solution and human recombinant PARP1, the above operation was conducted as a negative control.
Using a well into which a PARP buffer containing dimethyl sulfoxide was added in place of the test compound solution, the above operation was conducted as a positive control.
PARP1 inhibition rate (%) was calculated according to the following Formula 1. PARP1 inhibition rate(%)=(AbsB−AbsX)/(AbsB−AbsA)×100 [Formula 1]
AbsA: absorbance of negative control (Abs 450)
AbsB: absorbance of positive control (Abs 450)
AbsX: absorbance of test compound-treated group (Abs 450)

T1 sequence (P09874 whole entry): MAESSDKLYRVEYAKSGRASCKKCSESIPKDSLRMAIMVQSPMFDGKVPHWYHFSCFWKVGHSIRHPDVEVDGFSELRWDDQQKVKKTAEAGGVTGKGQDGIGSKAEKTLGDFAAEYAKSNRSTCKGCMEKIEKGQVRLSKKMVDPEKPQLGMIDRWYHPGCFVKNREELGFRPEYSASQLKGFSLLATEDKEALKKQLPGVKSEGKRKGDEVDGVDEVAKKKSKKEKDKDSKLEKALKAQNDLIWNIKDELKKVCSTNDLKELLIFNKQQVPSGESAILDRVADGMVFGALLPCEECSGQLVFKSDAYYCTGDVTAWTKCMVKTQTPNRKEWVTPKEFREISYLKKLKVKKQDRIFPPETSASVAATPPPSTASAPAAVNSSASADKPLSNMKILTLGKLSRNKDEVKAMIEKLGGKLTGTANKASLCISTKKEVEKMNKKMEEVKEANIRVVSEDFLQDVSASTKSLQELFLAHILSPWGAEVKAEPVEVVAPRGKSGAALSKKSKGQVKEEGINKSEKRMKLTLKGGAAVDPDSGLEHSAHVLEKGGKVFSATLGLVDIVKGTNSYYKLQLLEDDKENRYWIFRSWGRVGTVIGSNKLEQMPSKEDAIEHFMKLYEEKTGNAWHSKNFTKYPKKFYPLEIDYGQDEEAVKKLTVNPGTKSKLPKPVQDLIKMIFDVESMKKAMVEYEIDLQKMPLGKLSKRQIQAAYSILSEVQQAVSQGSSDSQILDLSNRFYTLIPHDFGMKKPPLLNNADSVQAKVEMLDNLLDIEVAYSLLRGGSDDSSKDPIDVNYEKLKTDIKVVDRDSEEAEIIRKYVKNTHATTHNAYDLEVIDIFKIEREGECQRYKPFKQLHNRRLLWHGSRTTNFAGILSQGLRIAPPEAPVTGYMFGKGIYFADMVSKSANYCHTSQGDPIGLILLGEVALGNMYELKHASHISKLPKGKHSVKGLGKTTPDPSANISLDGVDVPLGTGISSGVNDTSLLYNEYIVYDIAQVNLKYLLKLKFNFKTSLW

inhibition at 10 µM [%] | SMILES
90 | O=c1[nH]c2cc(CN3CCN(c4ccc(Br)cc4)CC3)cn2c2ccccc12 [Compound 2-20, 2-[4-(4-Bromophenyl)piperazin-1-ylmethyl]pyrrolo[1,2-a]quinazolin-5(4H)-one]
65 | O=c1[nH]c2cc(CN3CCc4ccccc4C3)cn2c2ccccc12 [Compound 2-21, 2-(1,2,3,4-Tetrahydroisoquinolin-2(1H)-ylmethyl)pyrrolo[1,2-a]quinazolin-5(4H)-one]
97 | CN(C)C1CCN(Cc2cc3[nH]c(=O)c4ccccc4n3c2)CC1 [Compound 2-22, 2-(4-Dimethylaminopiperidin-1-ylmethyl)pyrrolo[1,2-a]quinazolin-5(4H)-one]
100 | O=c1[nH]c2cc(CN3CCN(c4ccncc4)CC3)cn2c2ccccc12 [Compound 2-23, 2-[4-(Pyridin-4-yl)piperazin-1-ylmethyl]pyrrolo[1,2-a]quinazolin-5(4H)-one]
99 | CC1CN(c2ccc(F)cc2)CCN1Cc1cc2[nH]c(=O)c3ccccc3n2c1 (centres unmarked) [Compound 2-24, 2-[4-(4-Fluorophenyl)-2-methylpiperazin-1-ylmethyl]pyrrolo[1,2-a]quinazolin-5(4H)-one]
100 | COc1ccccc1N1CCN(Cc2cc3[nH]c(=O)c4ccccc4n3c2)CC1 [Compound 2-25, 2-[4-(2-Methoxyphenyl)piperazin-1-ylmethyl]pyrrolo[1,2-a]quinazolin-5(4H)-one]
78 | COc1cccc(N2CCN(Cc3cc4[nH]c(=O)c5ccccc5n4c3)CC2)c1 [Compound 2-26, 2-[4-(3-Methoxyphenyl)piperazin-1-ylmethyl]pyrrolo[1,2-a]quinazolin-5(4H)-one]
99 | O=c1[nH]c2cc(CN3CCN(C4CCCCC4)CC3)cn2c2ccccc12 [Compound 2-27, 2-(4-Cyclohexylpiperazin-1-ylmethyl)pyrrolo[1,2-a]quinazolin-5(4H)-one]
99 | O=c1[nH]c2cc(CN3CCN(CC4CC4)CC3)cn2c2ccccc12 [Compound 2-28, 2-(4-Cyclopropylmethylpiperazin-1-ylmethyl)pyrrolo[1,2-a]quinazolin-5(4H)-one]
40 | O=c1[nH]c2cc(CN3CCN(c4ccc(C(F)(F)F)cc4)CC3)cn2c2ccccc12 [Compound 2-29, 2-[4-(4-Trifluoromethylphenyl)piperazin-1-ylmethyl]pyrrolo[1,2-a]quinazolin-5(4H)-one]
66 | O=c1[nH]c2cc(CN3CCCC(c4ccccc4)C3)cn2c2ccccc12 (centres unmarked) [Compound 2-31, 2-(3-Phenylpiperidin-1-ylmethyl)pyrrolo[1,2-a]quinazolin-5(4H)-one]
97 | Cc1cccc(N2CCN(Cc3cc4[nH]c(=O)c5ccccc5n4c3)CC2)c1 [Compound 2-32, 2-[4-(3-Methylphenyl)piperazin-1-ylmethyl]pyrrolo[1,2-a]quinazolin-5(4H)-one]
96 | O=c1[nH]c2cc(CN3CCC(N4CCCCC4)CC3)cn2c2ccccc12 [Compound 2-33, 2-[4-(Piperidin-1-yl)piperidin-1-ylmethyl]pyrrolo[1,2-a]quinazolin-5(4H)-one]
96 | O=c1[nH]c2cc(CN3CCCC3)cn2c2ccccc12 [Compound 2-34, 2-(Pyrrolidin-1-ylmethyl)pyrrolo[1,2-a]quinazolin-5(4H)-one]
82 | O=c1[nH]c2cc(CN3CCN(c4nccc5occc45)CC3)cn2c2ccccc12 [Compound 2-36, 2-[4-(Furo[3,2-c]pyridin-4-yl)piperazin-1-ylmethyl]pyrrolo[1,2-a]quinazolin-5(4H)-one]
98 | CC(C)Oc1ccc(N2CCN(Cc3cc4[nH]c(=O)c5ccccc5n4c3)CC2)cc1 [Compound 2-38, 2-[4-(4-Isopropoxyphenyl)piperazin-1-ylmethyl]pyrrolo[1,2-a]quinazolin-5(4H)-one]
100 | O=c1[nH]c2cc(CN3CCN(c4ccc(F)cc4)CC3)cn2c2ccsc12 [Compound 2-41, 7-[4-(4-Fluorophenyl)piperazin-1-ylmethyl]pyrrolo[1,2-a]thieno[2,3-e]pyrimidin-4(5H)-one]
